# In patent US20230099344A1, “COMPOUNDS AND METHODS FOR THE TARGETED DEGRADATION OF IRAK-4” (Arvinas Operations, Inc., priority 2021, published 2023):
# Target: T1, IRAK-4 (Homo sapiens, UniProt Q9NWZ3)
# T1 sequence (Q9NWZ3 1-460): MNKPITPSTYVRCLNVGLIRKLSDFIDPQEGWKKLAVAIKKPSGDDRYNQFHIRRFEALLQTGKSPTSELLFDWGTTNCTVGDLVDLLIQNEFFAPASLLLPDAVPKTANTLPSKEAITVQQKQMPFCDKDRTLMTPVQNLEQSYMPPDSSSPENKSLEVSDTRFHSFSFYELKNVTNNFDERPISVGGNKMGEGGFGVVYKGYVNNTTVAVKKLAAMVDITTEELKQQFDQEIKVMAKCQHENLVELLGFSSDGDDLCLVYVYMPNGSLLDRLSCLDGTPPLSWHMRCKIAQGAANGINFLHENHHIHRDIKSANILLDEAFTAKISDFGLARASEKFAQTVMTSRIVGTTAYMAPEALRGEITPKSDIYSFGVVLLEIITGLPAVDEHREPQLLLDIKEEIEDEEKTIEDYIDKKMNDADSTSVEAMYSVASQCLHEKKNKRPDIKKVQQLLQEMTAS
# Test: IRAK-4 ELISA, PBMC degradation
# Assay type: cell-based
# Parameters: endogenous in cells; host or cells: PBMC
# Conditions: treated overnight
# Protocol: Reagents: Human IRAK-4 Matched Antibody Pair Kit (Abcam ab218182) and ELISA Accessory Pack (Abcam ab210905).
# Cell Treatment and Lysis:
# 1. OCI-Ly10: 200,000 cells are seeded at 1×10^6/ml in 96-well U-bottom plates 200 ul per well, treated with compound the same day. Incubate overnight. 2. PBMC: 800,000 cells are seeded at 2×10^6/ml in 96-well U-bottom deep-well plates, 400 ul per well, treated with compound the same day. Incubate overnight.
# Cell lysate is collected and analyzed by ELISA for IRAK-4 levels.
SMILES,DC50,Dmax,PBMC DC90,PBMC Dmax
CN1CC(Oc2cc3nn(C4CCN(CC5CN(c6ccc7c(c6)C(=O)N(C6CCC(=O)NC6=O)C7=O)C5)CC4)cc3cc2NC(=O)c2cnn3cccnc23)C1 (stereo not drawn) [Example 151],5 to 10 nM,70 to 80%,D (D represents a DC90 value ≥50 nM),–
CCOc1cc2nn(C3CCN(CC4(F)CN(c5ccc6c(c5)C(=O)N(C5CCC(=O)NC5=O)C6=O)C4)CC3)cc2cc1NC(=O)c1cnn2cccnc12 (stereo not drawn) [Example 195],1 to 5 nM,≥ 90%,B (B represents a DC90 value ≥10.0 nM and <25.0 nM),–
O=C1CCC(N2C(=O)c3ccc(N4CC(F)(CN5CCC(n6cc7cc(NC(=O)c8cnn9cccnc89)c(OCC(F)F)cc7n6)CC5)C4)cc3C2=O)C(=O)N1 (stereo not drawn) [Example 232],1 to 5 nM,–,C (C represents a DC90 value ≥25.0 nM and <50 nM),B (B represents a Dmax value ≥80 and <90)
CN(C1CCC(N2Cc3cc(NC(=O)c4cnn5cccnc45)c(OC4CC4)cc3C2=O)CC1)C1CN(c2ccc3c(c2)C(=O)N(C2CCC(=O)NC2=O)C3=O)C1 (stereo not drawn) [Example 341],< 1 nM,≥ 90%,A (A represents a DC90 value <10.0 nM),–
CC(C)Oc1cc2c(cc1NC(=O)c1cnn3cccnc13)CN(C1CCN(CCOCCOc3ccc4c(c3)CN(C3CCC(=O)NC3=O)C4=O)CC1)C2=O (stereo not drawn) [Example 2],< 1 nM,≥ 90%,2 nM,–
O=C1CCC(N2C(=O)c3ccc(N4CC(F)(CN5CCC(n6cc7cc(NC(=O)c8cnn9ccc(N%10C[C@H]%11C[C@@H]%10CO%11)nc89)c(OCC8CC8)cc7n6)CC5)C4)cc3C2=O)C(=O)N1 (stereo partly drawn) [Example 239],5 to 10 nM,< 70%,C (C represents a DC90 value ≥25.0 nM and <50 nM),–
COC1(CN2CCC(n3cc4cc(NC(=O)c5cnn6cccnc56)c(OCC5CC5)cc4n3)CC2)CN(c2ccc3c(c2)C(=O)N(C2CCC(=O)NC2=O)C3=O)C1 (stereo not drawn) [Example 234],< 1 nM,80 to 90%,A (A represents a DC90 value <10.0 nM),–
O=C1CCC(N2C(=O)c3ccc(N4CC(F)(CN5CCC([C@H](F)CN6Cc7cc(NC(=O)c8cnn9cccnc89)c(N8CCOCC8)cc7C6=O)CC5)C4)cc3C2=O)C(=O)N1 (stereo partly drawn) [Example 413],1 to 5 nM,80 to 90%,B (B represents a DC90 value ≥10.0 nM and <25.0 nM),–
O=C1CCC(N2C(=O)c3ccc(N4CC(F)(CN5CCC(n6cc7cc(NC(=O)c8cnn9cccnc89)c(OC8CCC8)cc7n6)CC5)C4)cc3C2=O)C(=O)N1 (stereo not drawn) [Example 196],1 to 5 nM,80 to 90%,B (B represents a DC90 value ≥10.0 nM and <25.0 nM),–
"CC(C)Oc1cc2nn(C3CCN(CC4(F)CN(c5cc6c(cn5)C(=O)N(C5CCC(=O)NC5=O)C6=O)C4)CC3)cc2cc1NC(=O)c1cnn2cccnc12 (stereo not drawn) [Example 422, N-(2-(1-((1-(2-(2,6-dioxopiperidin-3-yl)-1,3-dioxo-2,3-dihydro-1H-pyrrolo[3,4-c]pyridin-6-yl)-3-fluoroazetidin-3-yl)methyl)piperidin-4-yl)-6-isopropoxy-2H-indazol-5-yl)pyrazolo[1,5-a]pyrimidine-3-carboxamide]",1 to 5 nM,70 to 80%,C (C represents a DC90 value ≥25.0 nM and <50 nM),–
COc1cc(N2CC(CN3CCC(N4Cc5cc(NC(=O)c6cnn7cccnc67)c(OC(C)C)cc5C4=O)CC3)C2)cc2c1C(=O)N(C1CCC(=O)NC1=O)C2 (stereo not drawn) [Example 21],< 1 nM,≥ 90%,A (A represents a DC90 value <10.0 nM),–
CN(C1CCN(c2ccc3c(c2)C(=O)N(C2CCC(=O)NC2=O)C3=O)CC1)[C@H]1CC[C@H](n2cc3cc(NC(=O)c4cnn5cccnc45)c(C4CC4)cc3n2)CC1 (stereo partly drawn) [Example 344],< 1 nM,≥ 90%,A (A represents a DC90 value <10.0 nM),–
CC(C)Oc1cc2nn([C@H]3CC[C@H](N(C)C4CN(c5ccc6c(c5)C(=O)N(C5CCC(=O)NC5=O)C6=O)C4)CC3)cc2cc1NC(=O)c1cnn2cccnc12 (stereo partly drawn) [Example 318],< 1 nM,≥ 90%,A (A represents a DC90 value <10.0 nM),–
CC(C)Oc1cc2c(cc1NC(=O)c1cnn3cccnc13)CN(C[C@@H](F)C1CCN(CC3CCN(c4ccc5c(c4)CN(C4CCC(=O)NC4=O)C5=O)CC3)CC1)C2=O (stereo partly drawn) [Example 20],< 1 nM,≥ 90%,A (A represents a DC90 value <10.0 nM),–
CCN(C1CCC(n2cc3cc(NC(=O)c4cnn5cccnc45)c(OCC4CC4)cc3n2)CC1)C1CN(c2ccc3c(c2)C(=O)N(C2CCC(=O)NC2=O)C3=O)C1 (stereo not drawn) [Example 325],1 to 5 nM,≥ 90%,C (C represents a DC90 value ≥25.0 nM and <50 nM),–
CC(C)Oc1cc2c(cc1NC(=O)c1cnn3cccnc13)CN(C1CCC(N(CC(F)F)C3CN(c4ccc5c(c4)C(=O)N(C4CCC(=O)NC4=O)C5=O)C3)CC1)C2=O (stereo not drawn) [Example 331],1 to 5 nM,≥ 90%,B (B represents a DC90 value ≥10.0 nM and <25.0 nM),–
CC(C)Oc1cc2c(cc1NC(=O)c1cnn3cccnc13)CN(C1CCN(CC3CCC4(CC3)CN(c3ccc5c(c3)C(=O)N(C3CCC(=O)NC3=O)C5=O)C4)CC1)C2=O (stereo not drawn) [Example 81],< 1 nM,≥ 90%,A (A represents a DC90 value <10.0 nM),–
CC(C)Oc1cc2nn(C3CCN(CC4(F)CN(c5ccc6c(c5)C(=O)N(C5CCC(=O)NC5=O)C6=O)C4)CC3)cc2cc1NC(=O)c1cnn2ccc(N3C[C@H]4C[C@@H]3CO4)nc12 (stereo partly drawn) [Example 191],5 to 10 nM,80 to 90%,D (D represents a DC90 value ≥50 nM),–
CN(C1CCC(n2cc3cc(NC(=O)c4cnn5cccnc45)c(OCC4CC4)cc3n2)CC1)C1CCN(c2ccc3c(c2)C(=O)N(C2CCC(=O)NC2=O)C3=O)CC1 (stereo not drawn) [Example 323],< 1 nM,≥ 90%,A (A represents a DC90 value <10.0 nM),–
O=C1CCC(N2C(=O)c3ccc(N4CC(F)(CN5CCC(n6cc7cc(NC(=O)c8cnn9cccnc89)c(OC8CCCC8)cc7n6)CC5)C4)cc3C2=O)C(=O)N1 (stereo not drawn) [Example 198],5 to 10 nM,≥ 90%,B (B represents a DC90 value ≥10.0 nM and <25.0 nM),–
CC(C)Oc1cc2c(cc1NC(=O)c1cnn3cccnc13)CN(C1CCN(CCN(C)c3ccc4c(c3)C(=O)N(C3CCC(=O)NC3=O)C4=O)CC1)C2=O (stereo not drawn) [Example 75],1 to 5 nM,≥ 90%,B (B represents a DC90 value ≥10.0 nM and <25.0 nM),–
CC(C)Oc1cc2c(cc1NC(=O)c1cnn3cccnc13)CN(C[C@@H](F)C1CCN(CC3CN(c4ccc5c(c4)CN(C4CCC(=O)NC4=O)C5=O)C3)CC1)C2=O (stereo partly drawn) [Example 16],< 1 nM,≥ 90%,A (A represents a DC90 value <10.0 nM),–
CC(C)Oc1cc2c(cc1NC(=O)c1cnn3cccnc13)CN(C1CCN(CCC3(F)CN(c4ccc5c(c4)C(=O)N(C4CCC(=O)NC4=O)C5=O)C3)CC1)C2=O (stereo not drawn) [Example 15],< 1 nM,80 to 90%,A (A represents a DC90 value <10.0 nM),–
CC(C)Oc1cc2nn(C3CCN(CC(F)(F)C4CN(c5ccc6c(c5)C(=O)N(C5CCC(=O)NC5=O)C6=O)C4)CC3)cc2cc1NC(=O)c1cnn2cccnc12 (stereo not drawn) [Example 147],1 to 5 nM,≥ 90%,B (B represents a DC90 value ≥10.0 nM and <25.0 nM),–
O=C1CCC(N2C(=O)c3ccc(N4CC(O)(CN5CCC(n6cc7cc(NC(=O)c8cnn9cccnc89)c(OCC8CC8)cc7n6)CC5)C4)cc3C2=O)C(=O)N1 (stereo not drawn) [Example 169],< 1 nM,≥ 90%,122 nM,–
CNc1ccn2ncc(C(=O)Nc3cc4cn(C5CCN(CC6(F)CN(c7ccc8c(c7)C(=O)N(C7CCC(=O)NC7=O)C8=O)C6)CC5)nc4cc3OCC3CC3)c2n1 (stereo not drawn) [Example 237],1 to 5 nM,70 to 80%,D (D represents a DC90 value ≥50 nM),–
O=C1CCC(N2C(=O)c3ccc(N4CCC(N5CCC(n6cc7cc(NC(=O)c8cnn9cccnc89)c(OCC8CC8)cc7n6)CC5)CC4)cc3C2=O)C(=O)N1 (stereo not drawn) [Example 170],< 1 nM,≥ 90%,A (A represents a DC90 value <10.0 nM),–
O=C1CCC(N2C(=O)c3ccc(N4CC(CN5CCC(n6cc7cc(NC(=O)c8cnn9cccnc89)c(OCC(F)F)cc7n6)CC5)C4)cc3C2=O)C(=O)N1 (stereo not drawn) [Example 235],< 1 nM,≥ 90%,A (A represents a DC90 value <10.0 nM),–
CC(C)Oc1cc2nn(C3CCN(CC4(F)CN(c5ccc6c(c5)C(=O)N(C5CCC(=O)NC5=O)C6=O)C4)CC3)cc2cc1NC(=O)c1cnn2ccc(N3CCOCC3)nc12 (stereo not drawn) [Example 190],≥ 10 nM,≥ 90%,D (D represents a DC90 value ≥50 nM),–
O=C1CCC(N2C(=O)c3ccc(N4CCC[C@@H](CN5CCC(n6cc7cc(NC(=O)c8cnn9cccnc89)c(OCC8CC8)cc7n6)CC5)C4)cc3C2=O)C(=O)N1 (stereo partly drawn) [Example 175],1 to 5 nM,≥ 90%,B (B represents a DC90 value ≥10.0 nM and <25.0 nM),–
